Reference: PubChem BioAssay (NCI)
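Test compounds were applied to cells in 96-well plates for 48 hours at 5 doses. Abbreviation: GI50, concentration required for 50% inhibition of growth. The concentration for full growth arrest is given as TGI.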

Key:
Assay in all cases: DTP human tumour cell line panel, 48 h
HCT-15 colon = system: HCT-15 colon
TK-10 renal = system: TK-10 renal
PC-3 prostate = system: PC-3 prostate
MALME-3M melanoma = system: MALME-3M melanoma
NCI-H522 lung = system: NCI-H522 lung
UACC-62 melanoma = system: UACC-62 melanoma
DU-145 prostate = system: DU-145 prostate
RXF 393 renal = system: RXF 393 renal
UACC-257 melanoma = system: UACC-257 melanoma
A498 renal = system: A498 renal

`COc1ccc2cc(C(=O)/C=C/c3cccc(OC)c3OC)ccc2c1` showed a GI50 (HCT-15 colon) of 3.53 µM, a TGI (HCT-15 colon) of 15.4 µM and a GI50 (TK-10 renal) of 25.3 µM. The TGI (TK-10 renal) was 65.1 µM, the GI50 (PC-3 prostate) was 17.4 µM and the TGI (PC-3 prostate) was 46.1 µM. It also gave a GI50 (MALME-3M melanoma) of 10.4 µM, a TGI (MALME-3M melanoma) of 29.4 µM and a GI50 (NCI-H522 lung) of 10.2 µM. It also gave a TGI (NCI-H522 lung) of 29.6 µM, a GI50 (UACC-62 melanoma) of 2.77 µM and a TGI (UACC-62 melanoma) of 11 µM. The GI50 (DU-145 prostate) was 15.3 µM, the TGI (DU-145 prostate) was 34.2 µM and the GI50 (RXF 393 renal) was 3.76 µM. The TGI (RXF 393 renal) was 12.9 µM, the GI50 (UACC-257 melanoma) was 15 µM and the TGI (UACC-257 melanoma) was 29.8 µM. For the same molecule, the GI50 (A498 renal) was 13.3 µM and the TGI (A498 renal) was 26.6 µM.

With `NCCCCn1c2c(c3ccccc3c1=O)C(=O)c1ccccc1-2` the GI50 (HCT-15 colon) was 0.0582 µM, the TGI (HCT-15 colon) was 0.412 µM and the GI50 (TK-10 renal) was 0.226 µM. For the same molecule, the TGI (TK-10 renal) was 1.25 µM, the GI50 (PC-3 prostate) was 0.193 µM and the TGI (PC-3 prostate) was 2.16 µM. For the same molecule, the GI50 (MALME-3M melanoma) was 0.311 µM, the TGI (MALME-3M melanoma) was 1.12 µM and the GI50 (NCI-H522 lung) was 0.424 µM. For the same molecule, the TGI (NCI-H522 lung) was 2.31 µM, the GI50 (UACC-62 melanoma) was 0.0467 µM and the TGI (UACC-62 melanoma) was 0.422 µM. The GI50 (DU-145 prostate) was 0.0131 µM, the TGI (DU-145 prostate) was 0.498 µM and the GI50 (RXF 393 renal) was 0.644 µM. For the same molecule, the GI50 (UACC-257 melanoma) was 0.619 µM, the TGI (UACC-257 melanoma) was 1.91 µM and the GI50 (A498 renal) was 0.543 µM. For the same molecule, the TGI (A498 renal) was 1.71 µM.

In the case of `COc1ccc(OC)c(/C=C/NC=O)c1`, the TGI (HCT-15 colon) is reported as over 100 µM, the TGI (TK-10 renal) is reported as over 100 µM and the TGI (PC-3 prostate) is reported as over 100 µM. The TGI (MALME-3M melanoma) was over 100 µM, the TGI (NCI-H522 lung) was over 100 µM and the TGI (UACC-62 melanoma) was over 100 µM. For the same molecule, the TGI (DU-145 prostate) was over 100 µM, the TGI (RXF 393 renal) was over 100 µM and the TGI (UACC-257 melanoma) was over 100 µM. The TGI (A498 renal) was over 100 µM.

Work on `CCOC(=O)c1c(C)n(Cc2ccc(OC)cc2)c2c1cc(O)c1[nH]c3c(c12)CCCC3` yielded a GI50 (HCT-15 colon) of 3.44 µM, a TGI (HCT-15 colon) of 13.2 µM and a GI50 (TK-10 renal) of 12.5 µM. It also gave a TGI (TK-10 renal) of 52.9 µM, a GI50 (PC-3 prostate) of 2.86 µM and a TGI (PC-3 prostate) of 37.4 µM. It also gave a GI50 (MALME-3M melanoma) of 2.85 µM, a TGI (MALME-3M melanoma) of 18.4 µM and a GI50 (NCI-H522 lung) of 1.75 µM. The TGI (NCI-H522 lung) was 3.97 µM, the GI50 (UACC-62 melanoma) was 1.97 µM and the TGI (UACC-62 melanoma) was 4.61 µM. It also gave a GI50 (DU-145 prostate) of 27.5 µM, a TGI (DU-145 prostate) of over 100 µM and a GI50 (RXF 393 renal) of 11.6 µM. The TGI (RXF 393 renal) was 43.5 µM, the GI50 (UACC-257 melanoma) was 1.77 µM and the TGI (UACC-257 melanoma) was 9.66 µM. The GI50 (A498 renal) was 21.3 µM and the TGI (A498 renal) was 60.6 µM.

Molecule `O=C(CCCSc1nc(-c2ccc(Cl)cc2)cc(-c2ccc(Cl)cc2)n1)NO` has a GI50 (HCT-15 colon) of 0.385 µM, a TGI (HCT-15 colon) of 11.9 µM and a GI50 (TK-10 renal) of 0.853 µM. For the same molecule, the TGI (TK-10 renal) was 17.2 µM, the GI50 (PC-3 prostate) was 1.21 µM and the TGI (PC-3 prostate) was 16.1 µM. It also gave a GI50 (MALME-3M melanoma) of 2.25 µM, a TGI (MALME-3M melanoma) of 11.6 µM and a GI50 (NCI-H522 lung) of 1.27 µM. For the same molecule, the TGI (NCI-H522 lung) was 8.11 µM, the GI50 (UACC-62 melanoma) was 0.946 µM and the TGI (UACC-62 melanoma) was 3.1 µM. The GI50 (DU-145 prostate) was 0.665 µM, the TGI (DU-145 prostate) was 8.94 µM and the GI50 (RXF 393 renal) was 0.347 µM. It also gave a TGI (RXF 393 renal) of 1.86 µM, a GI50 (UACC-257 melanoma) of 2.92 µM and a TGI (UACC-257 melanoma) of 18.2 µM. The GI50 (A498 renal) was 1.41 µM and the TGI (A498 renal) was 4.26 µM.

`CCCCNC(=O)NS(=O)(=O)c1ccc(N2N=C(c3ccc(C)cc3C)CC2c2ccc(N(C)C)cc2)cc1` (centres undefined) was tested, and the GI50 (HCT-15 colon) was 3.09 µM, the TGI (HCT-15 colon) was over 100 µM and the GI50 (TK-10 renal) was 5.64 µM. For the same molecule, the TGI (TK-10 renal) was over 100 µM, the GI50 (PC-3 prostate) was 3.34 µM and the TGI (PC-3 prostate) was over 100 µM. The GI50 (MALME-3M melanoma) was 3.08 µM, the TGI (MALME-3M melanoma) was 41.7 µM and the GI50 (NCI-H522 lung) was 3.25 µM. The TGI (NCI-H522 lung) was 14.8 µM, the GI50 (UACC-62 melanoma) was 2.18 µM and the TGI (UACC-62 melanoma) was 6.12 µM. For the same molecule, the GI50 (DU-145 prostate) was 5.75 µM, the TGI (DU-145 prostate) was 81.1 µM and the GI50 (RXF 393 renal) was 4.06 µM. It also gave a TGI (RXF 393 renal) of 15.7 µM, a GI50 (UACC-257 melanoma) of 4.04 µM and a TGI (UACC-257 melanoma) of over 100 µM. The GI50 (A498 renal) was 3.9 µM and the TGI (A498 renal) was 25.9 µM.

With `O=c1[nH]c(=O)n(C2CC(O)C(CS)O2)cc1F` (centres undefined) the TGI (HCT-15 colon) was over 100 µM, the TGI (TK-10 renal) was over 100 µM and the TGI (PC-3 prostate) was over 100 µM. For the same molecule, the TGI (MALME-3M melanoma) was over 100 µM, the TGI (NCI-H522 lung) was over 100 µM and the TGI (UACC-62 melanoma) was over 100 µM. It also gave a TGI (DU-145 prostate) of over 100 µM, a TGI (RXF 393 renal) of over 100 µM and a TGI (UACC-257 melanoma) of over 100 µM. The TGI (A498 renal) was over 86.2 µM.

Molecule `COc1cc(Cn2c(-c3ccccc3)cc3c2-c2oncc2CC3)cc(OC)c1OC` has a GI50 (HCT-15 colon) of 0.64 µM, a TGI (HCT-15 colon) of over 100 µM and a GI50 (TK-10 renal) of 7.7 µM. The TGI (TK-10 renal) was over 100 µM, the GI50 (PC-3 prostate) was 3.62 µM and the TGI (PC-3 prostate) was over 100 µM. It also gave a GI50 (MALME-3M melanoma) of 18.4 µM, a TGI (MALME-3M melanoma) of 84.4 µM and a GI50 (NCI-H522 lung) of 0.294 µM. The TGI (NCI-H522 lung) was 5.99 µM, the GI50 (UACC-62 melanoma) was 0.449 µM and the TGI (UACC-62 melanoma) was 77.5 µM. The GI50 (DU-145 prostate) was 1.73 µM, the TGI (DU-145 prostate) was over 100 µM and the GI50 (RXF 393 renal) was 1.36 µM. For the same molecule, the TGI (RXF 393 renal) was 50.5 µM, the GI50 (UACC-257 melanoma) was 20.2 µM and the TGI (UACC-257 melanoma) was over 100 µM. For the same molecule, the GI50 (A498 renal) was 0.271 µM and the TGI (A498 renal) was 2.06 µM.
